Laboratory results from patent US11992011B2, “Compounds for controlling plant pathogens” (VIB VZW, priority 2017, dated 2024).

How the values were obtained:
[1] = system: Arabidopsis thaliana (ecotype Col-0) seedlings; test: In vitro Arabidopsis thaliana seedling growth assay (Example 15); format: in vivo; conditions: for Agravitropy ratio / Primary root length / Rosette area: 14 days old seedlings; for Agravitropy ratio / Primary root length / Rosette area / Germination rate: mean ± SD
[2] = system: C4H enzyme; test: Yeast heterologous expression assay of C4H inhibition (Example 15); format: biochemical
Description: Further structural analogs of the C4H inhibitor 4-iodobenzoic acid (IBA) were tested for their ability to inhibit the C4H enzyme in a yeast heterologous expression assay.

[3] = system: Meloidogyne incognita; test: M. incognita infection in DIECA-treated tomato (Example 18); format: in vivo; conditions: DIECA alone
Description: Infection experiments with M. incognita were performed in the same manner as those with M. graminicola, except that plants were harvested 31 days after inoculation instead of 14 days. At this point, the plants were phenotyped by measuring the root length with a ruler and in some experiments by measuring leaf area using the EasyLeafArea software (Easlon and Bloom, 2014) and by determining shoot dry mass after 72 hours of drying in an oven at 70° C. Galls were stained and counted as described above.
To determine whether C4H inhibitors depend on this hormonal pathway, it was tested whether tomato plants treated with the chemical inhibitor of jasmonic acid biosynthesis diethyldithiocarbamate (DIECA) (Farmer et al., 1994) still responded to PA treatment.

[4] = system: Meloidogyne graminicola; test: Meloidogyne graminicola infection in rice cv. Kitaake, additional C4H inhibitors (Example 6); format: in vivo; conditions: foliar spray, N=8
Description: (§1) Unless otherwise mentioned, all chemicals for nematode experiments were applied as a foliar spray consisting of the target compound at a concentration of 300 μM together with 0.1% (v/v) Tween 20 surfactant (Calbiochem) in distilled water. Again unless otherwise mentioned, all treatments for the nematode experiments were carried out three times: one and eight days before pathogen inoculation and seven days after pathogen inoculation. In all cases, plants were sprayed until run-off with an atomizer.
(§2) Infection experiments with M. graminicola were performed by inoculating host plants 14 days after transfer to SAP by introducing the desired amount of J2 juveniles next to the root system using a micro pipette. Rice plants (cv. Nipponbare or Kitaake) were inoculated with 250 J2 juveniles per plant; wheat plants (cv. Sahara) were inoculated with 600 J2 juveniles per plant. Plants were harvested 14 days after inoculation. At this point, the plants were phenotyped by measuring the shoot and root length with a ruler, counting the number of adventitious roots and in some experiments by measuring leaf area using the EasyLeafArea software (Easlon and Bloom, 2014) and by determining shoot dry mass after 72 hours of drying in an oven at 70° C. Root systems were then stained in acid fuchsine as described in (Byrd et al., 1983) and left to destain in glycerol with 1 ml/l fuming HCl added for approximately ten days. The number of galls and nematodes was then counted using a binocular microscope.
Four different C4H inhibitors were used: piperonylic acid (PA), piperine (PIP), 4-propynyloxybenzoic acid (4PB) and 3-(4-pyridyl)acrylic acid (3PA).

[5] = system: J2 juveniles of Meloidogyne graminicola; test: In vitro nematode toxicity assay, M. graminicola J2 (Example 11); conditions: second experiment, C4H inhibitor 100 μM, Vertimec 0.02 v/v % abamectin, water control 93%
Description: J2 juveniles of Meloidogyne graminicola and Heterodera schachtii were isolated from Echinocloa cruss-galli roots and sugar beet roots respectively. Per treatment and species combination, 300 nematodes were isolated and divided over six wells that contained 1.5 ml of either sterilized tap water, a 100 μM C4H inhibitor solution or a 0.02 v/v % solution of the nematicide abamectin (Vertimec®, Syngenta AG). The nematodes were incubated in the dark on a slow-moving rotary shaker (50 rpm) and the number of living nematodes was counted regularly using a binocular microscope.
To rule out definitively that the compounds of the invention operate through direct toxicity to nematodes, an in vitro toxicity assay on J2 juveniles of the nematodes Meloidogyne graminicola and Heterodera schachtii was performed.
First, survival upon exposure to the C4H inhibitor piperonylic acid (PA) was compared to a negative control (tap water) and a positive control, the commercial nematicide Vertimec (0.02% Abamectin). A detailed survival curve is shown in FIG. 12a (M. graminicola) and FIG. 12b (H. schachtii).
In a second experiment, a broader range of C4H inhibitors were assayed in the same manner. The toxicity of piperonylic acid (PA), piperine (PIP), 4-propynyloxybenzoic acid (4PB), and 3-(4-pyridyl)acrylic acid (3PA) to J2 juveniles of Meloidogyne graminicola was compared to a negative control (tap water) and a true nematicide (Vertimec, active ingredient abamectin).

[6] = system: carrot; test: Phytotoxicity of foliar spray in uninfected carrot (Example 1); format: in vivo, Daucus carota; conditions: 500 μM foliar spray, 8 plants per treatment; for Leaf Area: mean ± standard deviation; for BBCH stage: median ± interquartile range
Description: Carrot seeds, cv. Nantes 2 (Vreeken's Zaden, Dordrecht, the Netherlands) were germinated on wet paper for seven days at 21° C. After germination, seedlings were transferred to individual pots filled with potting soil and placed in a growth chamber at 21° C.
as §1
(§3) Short-term phytotoxicity experiments (Example 1) were analyzed using non-parametric methods. For each variable, overall significance was determined using the Kruskal-Wallis test (Kruskal and Wallis, 1952), followed by a posthoc Conover-Iman test (Conover and Iman, 1981) with Hommel multiplicity correction (Hommel, 1988) if the Kruskal-Wallis test was significant. When only two groups were present, the Wilcoxon-Mann-Whitney test was used (Mann and Whitney, 1947).
(§4) To test whether C4H inhibitors induce phytotoxic effects in crops, uninfected tomato, wheat and carrot were treated with piperonylic acid (PA), 4-iodobenzoic acid (4-IBA) and piperic acid (PIA) at a concentration of 500 μM through foliar application. At harvest, leaf area (or shoot length in the case of wheat) and primary root length were recorded. The BBCH developmental stage (Lancashire et al., 1991), a measure of developmental retardation, was used to test for effects on development. Finally, the presence of visible signs of phytotoxicity such as chlorosis, discoloration or necrosis was recorded.

[7] = system: tomato; test: Phytotoxicity of foliar spray in uninfected tomato (Example 1); format: in vivo, Solanum lycopersicum; conditions: 500 μM foliar spray, 8 plants per treatment; for Leaf Area / Root length: mean ± standard deviation; for BBCH stage: median ± interquartile range
Description: Tomato seeds, cv. Moneymaker (Vreeken's Zaden, Dordrecht, the Netherlands) were sown on autoclaved potting soil coveed with polyethylene film and placed at 24° C. for eight days. Seedlings were then transferred to individual SAP-filled pots and placed in a growth chamber at 24° C. Plants were watered three times per week with 25 ml of quarter-strength Hoagland solution for the first two weeks and half-strength thereafter.
as §1, §3, §4

[8] = system: wheat; test: Phytotoxicity of foliar spray in uninfected wheat (Example 1); format: in vivo, Triticum aestivum; conditions: 500 μM foliar spray, 8 plants per treatment; for Root length / Shoot length: mean ± standard deviation; for BBCH stage: median ± interquartile range
Description: (§5) For Examples 1, 5 and 10, seeds of the winter wheat cultivar Sahara (Aveve Agrarisch, Landen, Belgium) were used. Seeds were washed in a 10% ethanol solution to remove any residual traces of fungicide and then germinated on wet paper at room temperature for four days; seeds were transferred to SAP tubes and placed in a growth chamber (25° C., 16 hours per day of light). Plants were watered with 8 ml of half-strength Hoagland solution every two days for the first ten days and with 8 ml of full strength Hoagland solution every two days afterwards.
as §1, §3, §4

[9] = system: Meloidogyne graminicola; test: Meloidogyne graminicola infection in wheat cv. Sahara (Example 5); format: in vivo; conditions: infected wheat, foliar spray
Description: as §5, §1, §2
In this experiment, the compounds PA, MDCA and 4-IBA were tested as foliar spray in the monocot staple crop wheat (Triticum aestivum, cv. Sahara) against the nematode Meloidogyne graminicola. The bacterial compound LPS (lipopolysaccharide), which is a potent inducer of the plant immune system and a known priming agent (Desaki et al., 2006), was also included as a positive control.

[10] = system: spring wheat (Triticum aestivum cv. Fielder); test: Yield and fertility in pathogen-free spring wheat (Example 2); conditions: 300 μM foliar spray three times; vs. control
Description: For Example 2, the spring wheat cultivar Fielder was used. Seeds were obtained from plants grown in the greenhouse complex of the VIB (Zwijnaarde, Belgium). Seeds were sown directly in potting soil (four seeds to a pot, thinned to three plants per pot after emergence) and placed in a growth chamber at 21° C. with 16 hours per day of light. These plants were grown until harvest; they were sprayed three times with the compounds of the invention at a concentration of 300 μM using the protocol described in the chemicals section. Spraying took place 14 and 21 days after emergence and a final time at heading.
In all cases model assumptions were verified using diagnostic plots (residuals, QQ-plot, scale-location and residuals-leverage). Outliers were removed only if they were outliers both in the statistical sense and if there was a biological reason for removal (e.g. the plant was stunted or developed a secondary infection).
To determine the effects of C4H inhibition on yield and fertility, spring wheat (Triticum aestivum cv. Fielder) was grown in a pathogen-free growth chamber until maturity and treated with a control or C4H inhibitor-containing foliar spray at regular intervals. At harvest, the number of ears per plant, the seed mass, the size of the seeds and the germination ability of the freshly harvested seeds were measured. Seed size was measured using the stacking density of the seed as a proxy measure; if a given seed mass takes up a greater volume, then the individual seeds must be larger.

Question: How did the Agravitropy ratio ([1]; 50 μM) turn out when O=C(O)c1ccc(C(F)(F)F)cc1 [CF3-BA, 4-trifluoromethylbenzoic acid] was run?
Answer: 0.79 ± 0.15

Question: And the Primary root length ([1]; 50 μM)?
Answer: 0.42 ± 0.14 cm

Question: What about the Rosette area ([1]; 50 μM) of the same compound?
Answer: 0.16 ± 0.06 cm^2

Question: And the Germination rate ([1]; 50 μM)?
Answer: 0.95 ± 0.22

Question: And the Agravitropy ratio ([1]; 100 μM)?
Answer: 0.81 ± 0.10

Question: And the Primary root length ([1]; 100 μM)?
Answer: 0.41 ± 0.14 cm

Question: What about the Rosette area ([1]; 100 μM) of the same compound?
Answer: 0.15 ± 0.09 cm^2

Question: What about the Germination rate ([1]; 100 μM) of the same compound?
Answer: 0.84 ± 0.37

Question: What about the “seedling phenotype compared with IBA” value ([1]; seedlings grown on amended medium) of the same compound?
Answer: identical phenotype to those grown on medium containing IBA

Question: And the C4H inhibitor activity [2]?
Answer: significant C4H inhibitor activity

Question: CCN(CC)C(=S)S [DIECA, diethyldithiocarbamate, reference compound] was tested. Which “change of number of galls, DIECA-treated tomato plants vs wild type” value [3] did it give?
Answer: +26%

Question: How did the “reduction in the number of galls compared to the control group” value (from here on “reduction in the number of galls”) [4] turn out when O=C(O)/C=C/c1ccncc1 [Formula 3PA, 3-(4-pyridyl)-acrylic acid] was run?
Answer: −47%

Question: And the “survival at the end of the experiment” value [5]?
Answer: 93%

Question: How did the “Leaf Area” value [6] turn out when O=C(O)c1ccc(I)cc1 [Formula 4-IBA, 4-iodobenzoic acid] was run?
Answer: 5.05 ± 1.35 cm^2

Question: What about the BBCH stage [6] of the same compound?
Answer: 13 ± 0

Question: And the “Leaf Area” value [7]?
Answer: 8.92 ± 1.91 cm^2

Question: And the Root length [7]?
Answer: 7.40 ± 0.79 cm

Question: And the BBCH stage [7]?
Answer: 102.5 ± 1.0

Question: And the Root length [8]?
Answer: 14.36 ± 2.78 cm

Question: And the Shoot length [8]?
Answer: 31.93 ± 3.38 cm

Question: What about the BBCH stage [8] of the same compound?
Answer: 13 ± 0

Question: And the Agravitropy ratio ([1]; 50 μM)?
Answer: 0.78 ± 0.17

Question: And the Primary root length ([1]; 50 μM)?
Answer: 0.43 ± 0.15 cm

Question: What about the Rosette area ([1]; 50 μM) of the same compound?
Answer: 0.10 ± 0.06 cm^2

Question: What about the Germination rate ([1]; 50 μM) of the same compound?
Answer: 0.88 ± 0.34

Question: And the Agravitropy ratio ([1]; 100 μM)?
Answer: 0.82 ± 0.11

Question: What about the Primary root length ([1]; 100 μM) of the same compound?
Answer: 0.28 ± 0.07 cm

Question: And the Rosette area ([1]; 100 μM)?
Answer: 0.05 ± 0.01 cm^2

Question: What about the Germination rate ([1]; 100 μM) of the same compound?
Answer: 0.84 ± 0.37

Question: What about the “Number of galls per AR” value ([9]; n = 9) of the same compound?
Answer: 2.7 ± 0.8

Question: And the Number of galls ([9]; per root system, n = 9)?
Answer: 27.8 ± 7.5

Question: What about the “reduction in gall numbers” value ([9]; vs control) of the same compound?
Answer: −27%

Question: What about the “survival at the end of the experiment” value [5] of the same compound?
Answer: 89%

Question: C#CCOc1ccc(C(=O)O)cc1 [Formula 4PB, 4-propynyloxybenzoic acid] was tested. Which “reduction in the number of galls” value [4] did it give?
Answer: −44%

Question: And the “survival at the end of the experiment” value [5]?
Answer: 91%

Question: What about the C4H inhibitor activity [2] of the same compound?
Answer: significant C4H inhibitor activity

Question: Which results are given for O=C(O)/C=C/C=C/c1ccc2c(c1)OCO2 [PIA, Piperic acid]?
Answer: Leaf Area [6]: 4.78 ± 0.85 cm^2; BBCH stage [6]: 13 ± 0; Leaf Area [7]: 12.21 ± 1.66 cm^2; Root length [7]: 8.24 ± 1.90 cm; BBCH stage [7]: 103 ± 1.0; Root length [8]: 14.57 ± 1.24 cm; Shoot length [8]: 31.07 ± 4.82 cm; BBCH stage [8]: 13 ± 0

Question: With O=C(/C=C/C=C/c1ccc2c(c1)OCO2)N1CCCCC1 [piperine, Piperine] as the compound, how does the “reduction in the number of galls” value [4] read?
Answer: −33%

Question: What about the “survival at the end of the experiment” value [5] of the same compound?
Answer: 91%

Question: What about the “Total yield (seed mass)” value [10] of the same compound?
Answer: small but statistically significant increase

Question: What about the “germination after fourteen days of freshly harvested seeds” value [10] of the same compound?
Answer: not significantly different

Question: And the “mean number of ears per plant” value [10]?
Answer: the same in all treatments

Question: And the “seed size (stacking density)” value [10]?
Answer: no effect
